Assay results reported in the supplement of paper PMC11451515.

Experiments:
Assay in all cases: AUC of viability dose-response curve (% viability x log10 dose units); higher = less sensitive
Details in all cases: 48 h
NOMO1 = system: NOMO1
Outline: (§1)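 Viability of medium-adapted leukemia cells was measured by CellTiter-Glo One luminescence after 48 h at 37°C with library compounds in DMSO. Doses were 11 threefold steps from 47 μM to 0.79 nM, in 1536-well plates at 500 or 1000 cells/well. Signals were normalised per plate to DMSO and cell-free wells and fitted with a four-parameter log-logistic model on log10 dose. Area under the curve was integrated by trapezoidal rule, with curves exceeding full viability scaled and failed quality-control curves removed.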

P12-Ichikawa = system: P12-Ichikawa
Outline: as §1

SEM cells = system: SEM cells
Outline: as §1

[1] = RPMI 5 mM glucose + 10% dialyzed FBS

Row | Structure (SMILES) | AUC of viability dose-response curve (NOMO1; HPLM + 10% dialyzed FBS) | AUC of viability dose-response curve (NOMO1; RPMI 5 mM glucose + 10% FBS) | AUC of viability dose-response curve (NOMO1; [1]) | AUC of viability dose-response curve (P12-Ichikawa; HPLM + 10% dialyzed FBS) | AUC of viability dose-response curve (P12-Ichikawa; RPMI 5 mM glucose + 10% FBS) | AUC of viability dose-response curve (P12-Ichikawa; [1]) | AUC of viability dose-response curve (SEM cells; HPLM + 10% dialyzed FBS) | AUC of viability dose-response curve (SEM cells; RPMI 5 mM glucose + 10% FBS) | AUC of viability dose-response curve (SEM cells; [1])
1 | C=CCc1ccc(O)c(-c2ccc(O)c(CC=C)c2)c1 | 419 | 388 | 382 | 251 | 331 | 319 | 377 | 308 | 345
2 | O=C1NC(=O)/C(=C/c2ccc(-c3ccc(F)cc3O)o2)S1 | 430 | 443 | 422 | 447 | 420 | 427 | 445 | 419 | 427
3 | COc1cc(C(=O)NS(=O)(=O)c2ccccc2C)ccc1Cc1cn(C)c2ccc(NC(=O)OC3CCCC3)cc12 | 371 | 378 | 384 | 411 | 380 | 383 | 323 | 338 | 319
4 | OC[C@H]1O[C@@H]2[C@@H](OC\3=N\C(=N)\C=C/[N@@]23)[C@@H]1O | 348 | 374 | 344 | 248 | 241 | 251 | 277 | 264 | 223
5 | OCCC#Cc1nc(-c2ccc(F)cc2)c(-c2ccncc2)n1CCCc1ccccc1 | 463 | 465 | 472 | 476 | 467 | 468 | 475 | 467 | 456
6 | N[S+](=O)([O-])OC[C@@H]1C[C@@H](n2ccc3c(N[C@H]4CCc5ccccc54)ncnc32)C[C@@H]1O | 319 | 300 | 313 | 373 | 352 | 352 | 352 | 346 | 339
7 | CC/1=C(/N2[C@H](SC1)[C@H](NC(=O)C(N)C3=CC=CC=C3)C2=O)C(O)=O (some centres undefined) | 457 | 459 | 464 | 461 | 472 | 473 | 437 | 464 | 467
8 | CC(C)Oc1ccc(C(=O)N[C@H](CNC(=O)CN(C)C)Cc2ccc(-c3cn4cccc([C@H](C)O)c4n3)cc2)cc1Cl | 354 | 331 | 344 | 394 | 348 | 369 | 363 | 346 | 357
9 | COc1cccc2c1CCCC2CCCN1CCN(C2CCCCC2)CC1 (centres undefined) | 462 | 457 | 450 | 469 | 459 | 460 | 427 | 428 | 454
10 | c1ccc(-c2oc3ncnc(NC[C@@H]4CCCO4)c3c2-c2ccccc2)cc1 | 454 | 467 | 454 | 461 | 454 | 455 | 468 | 463 | 467
11 | COc1cc(/C=C/C(=O)O)ccc1O | 463 | 452 | 438 | 452 | 434 | 441 | 411 | 412 | 460
